Laboratory results as given in ChEMBL document CHEMBL1201862, “PubChem BioAssay data set” (2004).
Active and inactive are the calls of the source. Numbered stars: 1 amine (or outer) side, 2 acyl side, 3 side chain; on linkers, the order of the positions; unused ones are H or OH. Square brackets hold non-standard residues; d marks the D form. Peptide text beside a SMILES is read from it. ξ: configuration not given here. ξR = N=C(N)NCCCC(N)C(=O)O; ξF = NC(Cc1ccccc1)C(=O)O; CO = O=C([*:1])[*:2]

Tests used:
[1] = HIV-1 AD8 envelope cell-cell fusion blockers – cherry-pick, dose response (AID 652062); assay type: functional, cell-based;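 also: luciferase signal from cell-cell fusion driven by HIV-1 clade B AD8 Env; potency is for inhibitors of fusion seen as a drop in luminescence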
[2] = blockers of HIV-1 envelope-mediated cell-cell fusion – cherry-pick, dose response (AID 652057); assay type: functional, cell-based
[3] = blockers of HIV-1 ZM109 envelope-driven cell-cell fusion – HeLa effector, CEM target cells, luciferase, cherry-pick, dose response (AID 652058); assay type: functional, cell-based;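 also: luciferase signal from HIV-1 Env mediated cell-cell fusion of effector and target cells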
[4] = viability loss in CEM21 cells – cell-based, CellTiter-Glo luminescence, cherry-picked, cytotoxicity control for viral fusion inhibitor project, dose response (AID 652042); assay type: functional;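 also: potency for signal decrease meaning cytotoxicity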
[5] = off-target signal loss in HeLa-CEM21 co-culture – HeLa F-luc CTL cells, cherry-picked, counter-screen for HIV-1 Env fusion inhibitor project, dose response (AID 652040); assay type: functional, cell-based;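 also: potency for signal decrease marking cytotoxic or nonspecific inhibition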
[6] = molecular target: T1, Latent membrane protein 1 (Human herpesvirus 4 (strain B95-8), UniProt P03230); assay: LMP1 TES1 pathway selectivity over dsRED control – imaging, HEK293T, dual-color eGFP/dsRED, cherry-picks, selectivity assay for LMP1 NF-kB inhibitor project, dose response (AID 588398); assay type: functional, cell-based
T1 sequence (P03230 whole entry): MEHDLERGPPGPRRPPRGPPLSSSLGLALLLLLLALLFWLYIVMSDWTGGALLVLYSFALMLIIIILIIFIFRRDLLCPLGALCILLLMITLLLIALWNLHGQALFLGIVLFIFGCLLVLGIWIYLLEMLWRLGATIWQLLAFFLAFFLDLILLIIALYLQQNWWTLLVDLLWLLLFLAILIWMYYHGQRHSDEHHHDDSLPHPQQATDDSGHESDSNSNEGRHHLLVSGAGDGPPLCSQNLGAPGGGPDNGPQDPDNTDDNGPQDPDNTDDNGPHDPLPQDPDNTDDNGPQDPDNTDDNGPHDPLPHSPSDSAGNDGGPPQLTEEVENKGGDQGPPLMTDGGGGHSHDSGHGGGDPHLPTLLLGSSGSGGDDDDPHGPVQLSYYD

[7] = molecular target: T2, Type-1 angiotensin II receptor (Homo sapiens, UniProt P30556); assay: antagonism of angiotensin II type 1 receptor – cell-based, uHTS hits, selectivity assay for APJ receptor antagonist project, dose response (AID 463214); assay type: functional;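 also: antagonist potency against angiotensin II stimulated AT1 response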
T2 sequence (P30556 whole entry): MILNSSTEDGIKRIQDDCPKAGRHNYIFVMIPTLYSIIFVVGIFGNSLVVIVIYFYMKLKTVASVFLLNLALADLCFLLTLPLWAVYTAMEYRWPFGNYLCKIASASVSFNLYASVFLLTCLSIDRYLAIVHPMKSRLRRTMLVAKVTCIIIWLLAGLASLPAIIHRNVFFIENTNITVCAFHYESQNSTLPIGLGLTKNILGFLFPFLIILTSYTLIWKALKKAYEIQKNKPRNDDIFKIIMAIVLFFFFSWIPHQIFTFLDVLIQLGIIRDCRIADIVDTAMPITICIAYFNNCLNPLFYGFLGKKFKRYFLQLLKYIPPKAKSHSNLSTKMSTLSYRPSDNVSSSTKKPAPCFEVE

Beta-galactosidase = Beta-galactosidase (Escherichia coli, UniProt Q8VNN2); assay: PubChem AID 485352; assay type: functional
Cytochrome P450 2C9 = Cytochrome P450 2C9 (Homo sapiens, UniProt P11712)
HEK293 = assay: EBV LMP1 TES2 canonical NF-kB signalling blockers – cell-based, HEK293, luciferase, cherry-pick, dose response (AID 588343); assay type: functional; details: Homo sapiens
Vero = assay: cells; assay type: functional, cell-based; details: Chlorocebus sabaeus
[8] = molecular target: T3, Short transient receptor potential channel 4 (Mus musculus, UniProt Q9QUQ5); assay: block of DAMGO-driven TRPC4 calcium entry – cell-based, HEK293 TRPC4/mu-opioid, Fluo-4 calcium, dose response (AID 434942); assay type: functional;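 also: potency of inhibitors blocking the TRPC4 calcium response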
T3 sequence (Q9QUQ5 whole entry): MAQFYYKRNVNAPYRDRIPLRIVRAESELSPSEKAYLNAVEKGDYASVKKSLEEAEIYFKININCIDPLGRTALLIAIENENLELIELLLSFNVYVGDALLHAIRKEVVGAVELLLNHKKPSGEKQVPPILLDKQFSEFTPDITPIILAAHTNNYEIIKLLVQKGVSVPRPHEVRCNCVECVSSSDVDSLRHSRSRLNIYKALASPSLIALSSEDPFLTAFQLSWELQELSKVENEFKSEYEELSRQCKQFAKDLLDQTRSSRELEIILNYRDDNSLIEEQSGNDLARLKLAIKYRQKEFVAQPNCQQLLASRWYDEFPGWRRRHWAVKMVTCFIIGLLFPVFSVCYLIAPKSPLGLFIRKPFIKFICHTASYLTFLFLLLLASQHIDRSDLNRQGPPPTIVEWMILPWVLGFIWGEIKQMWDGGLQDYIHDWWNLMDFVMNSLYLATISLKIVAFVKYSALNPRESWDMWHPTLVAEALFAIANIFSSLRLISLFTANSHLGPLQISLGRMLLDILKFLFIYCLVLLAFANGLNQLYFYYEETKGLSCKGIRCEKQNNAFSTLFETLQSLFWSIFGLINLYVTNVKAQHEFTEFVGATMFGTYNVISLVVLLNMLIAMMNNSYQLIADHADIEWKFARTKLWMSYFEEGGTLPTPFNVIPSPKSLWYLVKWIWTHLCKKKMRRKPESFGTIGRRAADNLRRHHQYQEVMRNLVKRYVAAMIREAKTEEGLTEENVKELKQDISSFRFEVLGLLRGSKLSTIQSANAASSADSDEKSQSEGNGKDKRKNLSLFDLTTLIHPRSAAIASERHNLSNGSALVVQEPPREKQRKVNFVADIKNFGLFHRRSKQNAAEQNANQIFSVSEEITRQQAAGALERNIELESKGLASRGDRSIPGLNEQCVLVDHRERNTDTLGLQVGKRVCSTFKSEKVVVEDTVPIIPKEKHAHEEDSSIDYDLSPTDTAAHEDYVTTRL

[9] = molecular target: T3, Short transient receptor potential channel 4; assay: calcium entry via TRPC4 opening agents – cell-based, HEK293 TRPC4/mu-opioid, Fluo-4 calcium, dose response (AID 434937); assay type: functional
[10] = Luminescence Cell-Based Dose Retest to Confirm Inhibitors of Cancer Stem Cells. [Related pubchem assays (depositor defined):AID2717, AID2721]; assay type: functional; details: Homo sapiens
Coagulation factor XII = molecular target: T4, Coagulation factor XII (Homo sapiens, UniProt P00748); assay type: functional;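 also: activated factor XIIa alpha cleaving a fluorogenic AMC peptide substrate; inhibitor potency from loss of enzyme activity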
T4 sequence (P00748 whole entry): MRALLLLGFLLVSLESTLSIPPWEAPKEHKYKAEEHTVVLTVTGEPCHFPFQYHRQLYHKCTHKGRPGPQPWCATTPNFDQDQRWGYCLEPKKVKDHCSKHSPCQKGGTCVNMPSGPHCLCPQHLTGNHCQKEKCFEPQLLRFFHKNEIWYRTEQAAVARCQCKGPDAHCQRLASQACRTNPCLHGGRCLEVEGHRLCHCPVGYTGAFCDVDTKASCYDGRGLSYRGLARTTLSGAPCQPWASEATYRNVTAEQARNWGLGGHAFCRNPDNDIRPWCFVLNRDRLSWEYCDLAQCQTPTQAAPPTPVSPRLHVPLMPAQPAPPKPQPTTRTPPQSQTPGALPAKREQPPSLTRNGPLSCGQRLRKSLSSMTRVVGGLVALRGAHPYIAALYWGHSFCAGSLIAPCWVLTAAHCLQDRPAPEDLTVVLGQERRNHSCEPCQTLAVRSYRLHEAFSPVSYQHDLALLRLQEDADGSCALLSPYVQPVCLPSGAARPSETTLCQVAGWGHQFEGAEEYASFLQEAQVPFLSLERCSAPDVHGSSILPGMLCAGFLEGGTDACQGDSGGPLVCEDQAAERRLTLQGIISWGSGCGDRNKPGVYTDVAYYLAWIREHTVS

Sequence of Beta-galactosidase (Q8VNN2 whole entry): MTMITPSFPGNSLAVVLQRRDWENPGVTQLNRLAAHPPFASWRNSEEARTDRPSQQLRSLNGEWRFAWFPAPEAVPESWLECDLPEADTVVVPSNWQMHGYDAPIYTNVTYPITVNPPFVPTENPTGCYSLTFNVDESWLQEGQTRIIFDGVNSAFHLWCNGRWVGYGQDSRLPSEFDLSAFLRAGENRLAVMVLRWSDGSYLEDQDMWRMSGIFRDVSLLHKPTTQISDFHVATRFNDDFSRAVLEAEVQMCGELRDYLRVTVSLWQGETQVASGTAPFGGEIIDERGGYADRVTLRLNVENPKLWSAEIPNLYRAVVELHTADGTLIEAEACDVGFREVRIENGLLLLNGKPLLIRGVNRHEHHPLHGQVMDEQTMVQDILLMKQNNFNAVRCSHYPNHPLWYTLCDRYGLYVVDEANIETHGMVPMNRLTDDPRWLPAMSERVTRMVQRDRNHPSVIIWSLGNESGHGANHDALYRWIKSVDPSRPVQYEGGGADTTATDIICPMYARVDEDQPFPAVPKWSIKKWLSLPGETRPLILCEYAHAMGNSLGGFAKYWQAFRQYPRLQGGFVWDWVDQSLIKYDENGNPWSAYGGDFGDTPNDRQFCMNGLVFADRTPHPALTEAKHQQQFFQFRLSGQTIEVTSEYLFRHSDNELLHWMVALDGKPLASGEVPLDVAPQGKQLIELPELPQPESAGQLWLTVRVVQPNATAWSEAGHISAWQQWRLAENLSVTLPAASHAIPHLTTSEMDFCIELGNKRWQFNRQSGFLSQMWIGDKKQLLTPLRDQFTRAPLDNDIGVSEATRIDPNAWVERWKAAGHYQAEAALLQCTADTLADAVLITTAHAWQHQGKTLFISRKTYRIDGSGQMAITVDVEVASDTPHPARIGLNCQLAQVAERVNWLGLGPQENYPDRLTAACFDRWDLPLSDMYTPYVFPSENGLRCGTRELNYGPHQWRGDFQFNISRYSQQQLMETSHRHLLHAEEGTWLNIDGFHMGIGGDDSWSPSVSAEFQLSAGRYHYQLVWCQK
Sequence of Cytochrome P450 2C9 (P11712 whole entry): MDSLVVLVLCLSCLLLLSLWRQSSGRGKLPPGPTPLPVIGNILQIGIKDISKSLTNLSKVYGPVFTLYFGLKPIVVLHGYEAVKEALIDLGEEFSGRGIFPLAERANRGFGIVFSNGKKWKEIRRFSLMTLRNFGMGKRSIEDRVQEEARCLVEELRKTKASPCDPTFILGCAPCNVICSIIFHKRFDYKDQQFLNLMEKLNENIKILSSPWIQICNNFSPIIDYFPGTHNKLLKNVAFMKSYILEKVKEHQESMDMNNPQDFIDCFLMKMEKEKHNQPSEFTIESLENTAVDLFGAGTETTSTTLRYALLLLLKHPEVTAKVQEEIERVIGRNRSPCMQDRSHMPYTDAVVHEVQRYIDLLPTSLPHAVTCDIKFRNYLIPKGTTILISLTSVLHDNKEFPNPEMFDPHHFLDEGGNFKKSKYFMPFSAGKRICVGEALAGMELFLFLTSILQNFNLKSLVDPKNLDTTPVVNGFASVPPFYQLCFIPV

SMILES: CCCCN1C(=O)C(O)(c2ccccc2)c2cc(Br)ccc21 (centres undefined)
- AC50 [1]: 7.82 µM (active)
- AC50 [2]: 4.89 µM (active)
- AC50 [3]: 4.73 µM (active)
- AC50 [4]: 48.2 µM (active)
- AC50 [5]: 6.01 µM (active)

SMILES: COc1cc(OC)cc(C(=O)N[C@H](C(=O)OCC(=O)c2ccc(C)c([N+](=O)[O-])c2)C(C)C)c1
- AC50 [6]: 42.8 µM (active)
- IC50 [7]: > 40 µM (not active)
- EC50 (Beta-galactosidase): > 40 µM (inactive)

SMILES: NC(=O)c1nn(-c2ccccc2)c(=O)cc1O
- AC50 (Cytochrome P450 2C9): inconclusive

SMILES: COc1cc2c(=O)n(CC3CCCO3)c(=O)n(CC(=O)Nc3cccc(Cl)c3)c2cc1OC (centres undefined)
- AC50 (HEK293): 84.3 µM (active)
- AC50 [6]: 277 µM (active)

SMILES: CNc1cccnc1C=NNC(N)=S
- AC50 [1]: 1.94 µM (active)
- AC50 (HEK293): 2.43 µM (active)
- AC50 [2]: 0.457 µM (active)
- AC50 [6]: 6.42 µM (active)
- AC50 [3]: 0.805 µM (active)
- AC50 [4]: 5.69 µM (active)
- AC50 [5]: 9.89 µM (active)

SMILES: OC1(c2cccs2)C[N+](c2ccc(Cl)cc2)=C2CCCCN21 (centres undefined)
- IC50 (Vero): 8.4 µM (active)
- EC50 [8]: 2.66 µM (active)

SMILES: O=C(NC1CCCc2ccccc21)c1ccc(O)nc1 (centres undefined)
- AC50 (Cytochrome P450 2C9): inconclusive

SMILES: COC(=O)[C@]12C[C@H](CC(=O)NCc3cccs3)C(=O)N(CCC3=CCCCC3)C1=C[C@H](C(C)(C)C)O[C@@H]2C
- AC50 [1]: 5.01 µM (active)
- AC50 [2]: 1.18 µM (active)
- AC50 [3]: 1.91 µM (active)
- AC50 [4]: 51.6 µM (active)
- AC50 [5]: 1.72 µM (active)

SMILES: O=C(N/N=C/c1cccnc1)c1ccccc1OCc1ccc(Cl)cc1
- EC50 [8]: 1.5 µM (active)
- EC50 [9]: 3.35 µM (active)

SMILES: CN1CCN(/N=C/c2ccc(N(c3ccccc3)c3ccccc3)cc2)CC1
- AC50 [10]: 5.11 µM (active)
- AC50 (HEK293): 0.907 µM (active)
- AC50 [6]: 0.147 µM (active)

SMILES: O=C(c1ccco1)C(O)c1ccco1 (centres undefined)
- IC50 [7]: 35.2 µM (not active)
- EC50 (Beta-galactosidase): > 40 µM (inactive)

SMILES: CC(C)[C@H](NC(=O)[C@H](CCCN=C(N)N)NC(=O)NC(Cc1ccccc1)C(=O)O)C(=O)NC(C=O)CCCN=C(N)N (stereo partly drawn) ({ξF-CO}-Arg-Val-[ξR]-aldehyde)
- IC50 (Coagulation factor XII): 5.87 µM (active)
